Measurements published in patent US9895338B1, “Cobalt-polypyridyl complex for treatment of cancer, a pharmaceutical composition and a kit comprising it” (Macau University of Science and Technology, priority 2016, dated 2018).

Tests used:
[1] = tested on: cisplatin-resistant SGC-7901 gastric cancer cells; assay: MTT cytotoxicity, cisplatin-resistant SGC-7901; assay type: cell-based; conditions: for IC50: SGC-7901, MTT, 72 h; for Resistant Factor: SGC-7901, cisplatin-resistant over cisplatin-sensitive
Description: (§1) All prepared cobalt-polypyridyl complexes were dissolved in DMSO at a final concentration of 50 mmol/L and stored at −20° C. before use. Cytotoxicity was assessed by using the 3-(4,5-dimethylthiazol-2-yl)-2,5-diphenyltetrazolium bromide (MTT) (5.0 mg/ml) assay as previously described (Wong, V. K. et al., Cell Death Dis, 2013, 4, e720). Briefly, 4×10^3 cells per well were seeded in 96-well plates before drug treatments. After overnight culture, the cells were then exposed to different concentrations of selected compounds (0.039-100 μmol/L) for 72 h. Cells without drug treatment were used as control. Subsequently, MTT (10 μL) solution was added to each well and incubated at 37° C. for 4 h followed by the addition of 100 μL solubilization buffer (10% SDS in 0.01 mol/L HCl) and overnight incubation. A570 nm was then determined in each well on the next day. The percentage of cell viability was calculated using the following formula: Cell viability (%)=Atreated/Acontrol×100. Data were obtained from three independent experiments.
(§2) All cells were obtained from the American Type Culture Collection (Rockville, Md., USA) unless otherwise specified. Immortalized wild-type and Atg7-deficient mouse embryonic fibroblasts (MEFs) were provided by Professor Masaaki Komatsu (Juntendo University, School of Medicine, Japan). Taxol-resistant types of A549, MCF-7, HCT-8 cancer cells, cisplatin-resistant SGC7901 cancer cells were purchased from KeyGEN BioTECH, China.

[2] = tested on: cisplatin-sensitive A2780 ovarian cancer cells; assay: MTT cytotoxicity, cisplatin-sensitive A2780; assay type: cell-based; conditions: 72 h
Description: as §1
(§3) Cisplatin-sensitive or -resistant A2780, OV2008 and C13 cancer cells were provided by Prof. Benjamin Tsang (Department of Obstetrics and Gynecology and Department of Cellular and Molecular Medicine, University of Ottawa, Canada). HCT116 p53^+/+ and p53^−/− isogenic human colon cancer cells were provided by Professor Bert Vogelstein (Ludwig Center at Johns Hopkins, Howard Hughes Medical Institute, USA). All media were supplemented with 10% fetal bovine serum and the antibiotics penicillin (50 U/ml) and streptomycin (50 μg/ml; Invitrogen, Paisley, Scotland, UK). All cell cultures were incubated at 37° C. in a 5% humidified CO2 incubator.

[3] = tested on: Taxol-resistant MCF-7 cancer cells; assay: MTT cytotoxicity, taxol-resistant MCF-7; assay type: cell-based; conditions: for IC50: MCF-7, MTT, 72 h; for Resistant Factor: MCF-7, IC50 taxol-resistant over IC50 taxol-sensitive
Description: as §1, §2

[4] = tested on: H1299 (lung cancer); assay: MTT cytotoxicity assay, H1299; assay type: cell-based, human; conditions: 72 h
Description: as §1, with “experiments. Cells include HeLa cells (cervical cancer), MCF-7 (breast cancer), H1299, H1975, A549 and LLC-1 (lung cancer), HepG2 and Hep3B (liver cancer) and LO2 (normal human hepatocytes).” for “experiments.”

[5] = tested on: MCF-7 (breast cancer); assay: MTT cytotoxicity assay, MCF-7; assay type: cell-based; conditions: MCF-7, MTT, 72 h
Description: as §1, with “experiments. Cells include HeLa cells (cervical cancer), MCF-7 (breast cancer), H1299, H1975, A549 and LLC-1 (lung cancer), HepG2 and Hep3B (liver cancer) and LO2 (normal human hepatocytes).” for “experiments.”

[6] = tested on: OV2008 cervical cancer cells; assay: MTT cytotoxicity, OV2008 (cisplatin-sensitive); assay type: cell-based; conditions: 72 h
Description: as §1, §3

[7] = tested on: HeLa cells (cervical cancer); assay: MTT cytotoxicity assay, HeLa; assay type: cell-based; conditions: 72 h
Description: as §1, with “experiments. Cells include HeLa cells (cervical cancer), MCF-7 (breast cancer), H1299, H1975, A549 and LLC-1 (lung cancer), HepG2 and Hep3B (liver cancer) and LO2 (normal human hepatocytes).” for “experiments.”

[8] = tested on: Taxol-resistant HCT8 cancer cells; assay: MTT cytotoxicity, taxol-resistant HCT8; assay type: cell-based; conditions: for IC50: HCT8, MTT, 72 h; for Resistant Factor: HCT8, IC50 taxol-resistant over IC50 taxol-sensitive
Description: as §1, §2

[9] = tested on: H1975 (lung cancer); assay: MTT cytotoxicity assay, H1975; assay type: cell-based; conditions: 72 h
Description: as §1, with “experiments. Cells include HeLa cells (cervical cancer), MCF-7 (breast cancer), H1299, H1975, A549 and LLC-1 (lung cancer), HepG2 and Hep3B (liver cancer) and LO2 (normal human hepatocytes).” for “experiments.”

[10] = tested on: OV2008/C13 cervical cancer cells; assay: MTT cytotoxicity, OV2008/C13 (cisplatin-resistant); assay type: cell-based; conditions: for Resistant Factor: OV2008/C13 over OV2008
Description: as §1, §3

[11] = tested on: cancer cells from different origins; assay: MTT cytotoxicity assay, summary over cancer cell lines; assay type: cell-based; conditions: range over the cancer cell lines of Table 1; read-out: mean IC50 values ranging (anti-cancer potency)
Description: as §1, with “experiments. Cells include HeLa cells (cervical cancer), MCF-7 (breast cancer), H1299, H1975, A549 and LLC-1 (lung cancer), HepG2 and Hep3B (liver cancer) and LO2 (normal human hepatocytes).” for “experiments.”
By contrast, the cytotoxicity was lower in LO2 normal human hepatocytes. […]

[12] = tested on: LO2 (normal human hepatocytes); assay: MTT cytotoxicity assay, LO2; assay type: cell-based; conditions: 72 h
Description: as §1, with “experiments. Cells include HeLa cells (cervical cancer), MCF-7 (breast cancer), H1299, H1975, A549 and LLC-1 (lung cancer), HepG2 and Hep3B (liver cancer) and LO2 (normal human hepatocytes).” for “experiments.”

[13] = tested on: cisplatin-resistant A2780 ovarian cancer cells; assay: MTT cytotoxicity, cisplatin-resistant A2780; assay type: cell-based; conditions: for IC50: A2780, MTT, 72 h; for Resistant Factor: A2780, cisplatin-resistant over cisplatin-sensitive
Description: as §1, §3

[14] = tested on: A549 (lung cancer); assay: MTT cytotoxicity assay, A549; assay type: cell-based; conditions: 72 h
Description: as §1, with “experiments. Cells include HeLa cells (cervical cancer), MCF-7 (breast cancer), H1299, H1975, A549 and LLC-1 (lung cancer), HepG2 and Hep3B (liver cancer) and LO2 (normal human hepatocytes).” for “experiments.”

[15] = tested on: cisplatin-sensitive SGC-7901 gastric cancer cells; assay: MTT cytotoxicity, cisplatin-sensitive SGC-7901; assay type: cell-based; conditions: SGC-7901, MTT, 72 h
Description: as §1

[16] = tested on: Hep 3B (liver cancer); assay: MTT cytotoxicity assay, Hep3B; assay type: cell-based; conditions: 72 h
Description: as §1, with “experiments. Cells include HeLa cells (cervical cancer), MCF-7 (breast cancer), H1299, H1975, A549 and LLC-1 (lung cancer), HepG2 and Hep3B (liver cancer) and LO2 (normal human hepatocytes).” for “experiments.”

[17] = tested on: LLC-1 (lung cancer); assay: MTT cytotoxicity assay, LLC-1; assay type: cell-based; conditions: LLC-1, MTT, 72 h
Description: as §1, with “experiments. Cells include HeLa cells (cervical cancer), MCF-7 (breast cancer), H1299, H1975, A549 and LLC-1 (lung cancer), HepG2 and Hep3B (liver cancer) and LO2 (normal human hepatocytes).” for “experiments.”

[18] = tested on: HepG2 (liver cancer); assay: MTT cytotoxicity assay, HepG2; assay type: cell-based; conditions: 72 h
Description: as §1, with “experiments. Cells include HeLa cells (cervical cancer), MCF-7 (breast cancer), H1299, H1975, A549 and LLC-1 (lung cancer), HepG2 and Hep3B (liver cancer) and LO2 (normal human hepatocytes).” for “experiments.”

[19] = tested on: Taxol-sensitive HCT8 cancer cells; assay: MTT cytotoxicity, taxol-sensitive HCT8; assay type: cell-based; conditions: 72 h
Description: as §1

[20] = tested on: Taxol-sensitive MCF-7 cancer cells; assay: MTT cytotoxicity, taxol-sensitive MCF-7; assay type: cell-based; conditions: MCF-7, MTT, 72 h
Description: as §1

[21] = tested on: Atg7 wild-type MEFs; assay: Cytotoxic effect in Atg7 wild-type MEFs; assay type: cell-based, mouse
Description: as §2
(§4) In addition, the protein conversion from LC3-I to LC3-II is the marker for autophagy induction. […] In order to further confirm that the cobalt complex-induced autophagy leads to its anti-cancer effect, the cytotoxic effect of the cobalt-polypyridyl complex of Formula (IV) has been examined in both autophagy-wild type and -deficient cells respectively. Therefore, both autophagy related gene (Atg) 7 wild-type and deficient mouse embryonic fibroblasts (MEFs) (Wong, V. K. et al., Cell Death Dis, 2013, 4, e720) were used in this study. […] In view of the fact that the cobalt-polypyridyl complex of Formula (IV)-mediated cytotoxicity was markedly abrogated from the failure of autophagy induction in Atg7−/− deficient cells, these findings implicated that the cobalt-polypyridyl complex of Formula (IV)-induced autophagy would ultimately led to autophagic cell death.

[22] = tested on: Taxol-sensitive A549 cancer cells; assay: MTT cytotoxicity, taxol-sensitive A549; assay type: cell-based; conditions: 72 h
Description: as §1

[23] = tested on: HCT116 p53^−/− colon cancer cells; assay: MTT cytotoxicity, HCT116 p53-/-; assay type: cell-based, human
Description: as §1, §3

[24] = tested on: Taxol-resistant A549 cancer cells; assay: MTT cytotoxicity, taxol-resistant A549; assay type: cell-based
Description: as §1, §2

[25] = tested on: HCT116 p53^+/+ colon cancer cells; assay: MTT cytotoxicity, HCT116 p53+/+; assay type: cell-based, human; conditions: 72 h
Description: as §1, §3

[26] = tested on: Atg7 deficient MEFs; assay: Cytotoxic effect in Atg7 deficient MEFs; assay type: cell-based, mouse
Description: as §2, §4

| Compound | IC50 [1] | Resistant Factor [1] | IC50 [2] | IC50 [3] | Resistant Factor [3] | IC50 [4] | IC50 [5] | IC50 [6] | IC50 [7] | IC50 [8] | Resistant Factor [8] | IC50 [9] | Resistant Factor [10] | IC50 [12] | IC50 [13] | Resistant Factor [13] | IC50 [14] | IC50 [15] | IC50 [16] | IC50 [17] | also measured |
| --- | --- | --- | --- | --- | --- | --- | --- | --- | --- | --- | --- | --- | --- | --- | --- | --- | --- | --- | --- | --- | --- |
| CCCCCCCCCc1ccnc(-c2cc(CCCCCCCCC)ccn2)c1.CCCCCCCCCc1ccnc(-c2cc(CCCCCCCCC)ccn2)c1.CCCCCCCCCc1ccnc(-c2cc(CCCCCCCCC)ccn2)c1.F[P-](F)(F)(F)(F)F.F[P-](F)(F)(F)(F)F.F[P-](F)(F)(F)(F)F.[Co+3] [complex (VIII), [Co^III(4,4′-(C9H19)2-Bpy)3](PF6)3] | 35.9 µM | 0.99 | 30.2 µM | 11.1 µM | 0.39 | 26.7 µM | 37.4 µM | 49.4 µM | 21.3 µM | 41.1 µM | 0.73 | 24.2 µM | 1.87 | 40.2 µM | 29.1 µM | 0.96 | 82.8 µM | 36.3 µM | 54.1 µM | 10.4 µM | IC50 [11]: 10.4 to 82.8 µM; IC50 [18]: 26 µM; IC50 [19]: 56.4 µM; IC50 [20]: 28.5 µM |
| [Co^II(4,4′-Me2-Bpy)3](PF6)2 [complex (III)] | 17.6 µM | 1.50 | 11.9 µM | 2.51 µM | 0.54 | 3.43 µM | 15.4 µM | 7.06 µM | 10.1 µM | 1.16 µM | 0.37 | 15.4 µM | 2.21 | 13.5 µM | 11.2 µM | 0.94 | 9.45 µM | 11.7 µM | 4.06 µM | 2.79 µM | IC50 ([10]; OV2008/C13, MTT, 72 h): 15.6 µM; IC50 [21]: 4.84 µM; IC50 [22]: 9.59 µM; Resistant Factor ([23]; HCT116 p53^−/− over HCT116 p53^+/+): 0.52; IC50 ([23]; MTT, 72 h): 8.89 µM; IC50 ([24]; A549, MTT, 72 h): 2.37 µM; Resistant Factor ([24]; A549, IC50 taxol-resistant over IC50 taxol-sensitive): 0.25; IC50 [25]: 17.1 µM; IC50 [18]: 7.39 µM; IC50 [26]: 14 µM; IC50 [19]: 3.13 µM; IC50 [20]: 4.62 µM |
